A short description of series [1]: Cytotoxicity against mouse BMDM cells at 10 uM after 72 hrs by MTS assay. It is filed as cell-based. (Tetrazolium dyes change colour on reduction, which living cells bring about.)
Series [2] can be described thus: Inhibition of RANKL-induced osteoclastogenesis in mouse BMDM assessed as decrease in TRAP-positive cells at 10 uM after 5 days by light microscopy. It is filed as functional. The note with it: 120 h.

A word on the inhibition: it is the percentage by which the read-out fell short of the control. As for `O=c1ccc2ccc(O[C@@H]3O[C@H](CO)[C@@H](O)[C@H](O)[C@H]3O)c(O[C@@H]3O[C@H](CO)[C@@H](O)[C@H](O)[C@H]3O)c2o1` [DAPHNESIDE], the Activity entry in series [1] is “Non-toxic”. Besides, in series [2], the inhibition at 10 µM came out at 20%.

For the compound `COc1cc2cc(Oc3ccc4ccc(=O)oc4c3)c(=O)oc2cc1O[C@@H]1O[C@H](CO)[C@@H](O)[C@H](O)[C@H]1O` [DAPHNORIN], in series [1], the Activity entry is listed as “Non-toxic”. For the same compound, the inhibition at 10 µM in series [2] came to 13%.
